In assay [1] the test system is PPC-1 cells. The experiment in a line: PPC-1 cell survival with TRAIL (Cell Titer Glo). It counts as cell-based. Here is the method:
(§1) 5000 PPC-1 cells were plated and grown overnight. Compounds were plated and 4 hrs later, TRAIL was added to half of the plate while RPMI was added to the other half of the plate as a control. Plates were return to the incubator for 24 hrs. Plates were removed from the incubator and placed on the bench for 30 min and then 25 uL of Cell Titer Glo were added per well. Plates were placed on a rocker and then read on a luminometer. 5000 MDA-MB-231 cells were plated per well. Compound was added and 4 hrs later, TRAIL was added at 5 ng/mL; RPMI was added for a minus TRAIL control. Plates were incubated an additional 24 hrs, removed to the bench for 30 min, and then 25 uL of cell titer glo was added per well. Plates were placed on a rocker and read on a luminometer. Data were fit using PRISM.
A general note: Cellular ATP, detected with luciferase, serves as a proxy for viable cell number.

The target in assay [2] is XIAP BIR3 (Homo sapiens (Human), UniProt P98170). The experiment in a line: XIAP BIR3 Ki. It is filed as binding. As to conditions: Table B-1.
XIAP BIR3, sequence (P98170 241-356): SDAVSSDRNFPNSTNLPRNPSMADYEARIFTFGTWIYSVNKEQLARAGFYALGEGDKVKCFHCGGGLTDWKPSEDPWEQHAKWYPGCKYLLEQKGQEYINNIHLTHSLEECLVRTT
Assay [3] has as its target ML-IAP (Homo sapiens (Human), UniProt Q96CA5). Put plainly: ML-IAP Ki. The conditions noted are these: Table B-1. It is filed as binding.
The subject of assay [4] is MDA-MB-231 cells. The experiment in a line: MDA-MB-231 cell survival (Cell Titer Glo). It counts as cell-based. As for the experimental part:
as §1

The target in assay [5] is XIAP BIR1/2 (Homo sapiens, UniProt P98170). Put plainly: XIAP BIR1/2 Ki. As to conditions: Table B-1. It counts as binding.
XIAP BIR1/2, sequence (P98170 whole entry, looked up): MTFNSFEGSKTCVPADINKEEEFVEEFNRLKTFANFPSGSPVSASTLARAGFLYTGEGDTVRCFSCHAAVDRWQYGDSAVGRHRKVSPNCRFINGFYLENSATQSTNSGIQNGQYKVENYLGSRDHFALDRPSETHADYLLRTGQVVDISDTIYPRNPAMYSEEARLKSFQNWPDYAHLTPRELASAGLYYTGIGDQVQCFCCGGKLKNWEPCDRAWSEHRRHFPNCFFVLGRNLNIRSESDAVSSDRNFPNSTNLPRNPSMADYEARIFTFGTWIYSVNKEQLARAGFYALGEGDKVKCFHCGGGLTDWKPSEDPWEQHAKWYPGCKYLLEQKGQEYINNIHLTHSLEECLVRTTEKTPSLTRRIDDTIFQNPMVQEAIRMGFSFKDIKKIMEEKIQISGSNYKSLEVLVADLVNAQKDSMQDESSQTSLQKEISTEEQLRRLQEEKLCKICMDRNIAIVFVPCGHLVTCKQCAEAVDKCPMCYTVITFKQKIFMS
Assay [6] concerns PPC-1 cells. The experiment in a line: PPC-1 cell survival with TNFα. It is filed as cell-based. Here is the method: as §1, with “Compounds were plated and 4 hrs later, TRAIL was added to half of the plate while RPMI was added to the other half of the plate as a control.” left out

Molecules are shown by their SMILES.

ML-IAP, sequence (Q96CA5 whole entry, species assumed): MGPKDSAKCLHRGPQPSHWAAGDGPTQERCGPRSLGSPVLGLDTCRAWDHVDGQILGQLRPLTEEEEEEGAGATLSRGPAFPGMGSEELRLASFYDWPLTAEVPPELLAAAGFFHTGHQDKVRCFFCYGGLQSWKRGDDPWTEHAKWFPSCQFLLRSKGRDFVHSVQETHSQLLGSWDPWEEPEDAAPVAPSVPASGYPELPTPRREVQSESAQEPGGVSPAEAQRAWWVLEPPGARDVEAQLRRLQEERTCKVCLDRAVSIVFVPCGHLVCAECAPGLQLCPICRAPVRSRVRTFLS

A word on the Ki: it is the dissociation constant of the complex between target and ligand, obtained from inhibition or displacement. A higher Ki goes with weaker binding. `CN[C@@H](C)C(=O)N[C@H]1CCS[C@H]2CCC(C(=O)N[C@@H]3CCCc4ccccc43)N2C1=O` (stereo partly drawn) [Product 24]: the “PPC-1 (TRAIL) LD50” value in assay [1] is reported as “A (A = ≤ 25 micromolar)”. For the same compound, the values for the inhibition constant Ki in assay [2], in assay [3] and in assay [5] were less than 25 µM, less than 25 µM and greater than 50 µM, respectively. The “MDA-MB-231 LD50” value in assay [4] is “A (A = ≤ 25 micromolar)”. Also, the “PPC-1 (TNFα) LD50” value in assay [6] is recorded as “A (A = ≤ 25 micromolar)”.

With `CN[C@@H](C)C(=O)N[C@H]1CCO[C@H]2CC(C)(C)[C@@H](C(=O)N[C@@H]3CCCc4ccccc43)N2C1=O` [Product 26], in assay [1], the “PPC-1 (TRAIL) LD50” value is recorded as “A (A = ≤ 25 micromolar)”. For the same compound, the Ki in assay [2], in assay [3] and in assay [5] was less than 25 µM throughout. In assay [4], the “MDA-MB-231 LD50” value was “A (A = ≤ 25 micromolar)”. In assay [6], the “PPC-1 (TNFα) LD50” value is reported as “A (A = ≤ 25 micromolar)”.

Take `CN[C@@H](C)C(=O)N[C@H]1CCO[C@H]2CC[C@@H](C(=O)N[C@@H]3CCOc4ccccc43)N2C1=O` [Product 32]: the “PPC-1 (TRAIL) LD50” value in assay [1] is given as “A (A = ≤ 25 micromolar)”. Moreover, the Ki was less than 25 µM in assay [2], less than 25 µM in assay [3] and greater than 50 µM in assay [5]. Moreover, in assay [4], the “MDA-MB-231 LD50” value is on record as “A (A = ≤ 25 micromolar)”. In assay [6], the “PPC-1 (TNFα) LD50” value is on record as “A (A = ≤ 25 micromolar)”.
